From publication PMC3241989, “ADP Regulates SNF1, the Saccharomyces cerevisiae Homolog of AMP-Activated Protein Kinase” (Cell Metabolism, 2011)

What was measured:
[1] = target: T1, SNF1 complex (Snf1(1-633)Gal83(1-417)Snf4(1-322)) (Saccharomyces cerevisiae, UniProt P12904); experiment: fluorescence titration of coumarin nucleotide with SNF1; type: binding; conditions: read-out: Kd,I
T1 construct: full-length heterotrimer, His-tagged, expressed in E. coli, nickel-Sepharose; phosphorylated on Snf1 Thr210 by CaMKKbeta; with Carbon catabolite-derepressing protein kinase; SNF1 protein kinase subunit beta-3
T1 sequence (P12904 1-322): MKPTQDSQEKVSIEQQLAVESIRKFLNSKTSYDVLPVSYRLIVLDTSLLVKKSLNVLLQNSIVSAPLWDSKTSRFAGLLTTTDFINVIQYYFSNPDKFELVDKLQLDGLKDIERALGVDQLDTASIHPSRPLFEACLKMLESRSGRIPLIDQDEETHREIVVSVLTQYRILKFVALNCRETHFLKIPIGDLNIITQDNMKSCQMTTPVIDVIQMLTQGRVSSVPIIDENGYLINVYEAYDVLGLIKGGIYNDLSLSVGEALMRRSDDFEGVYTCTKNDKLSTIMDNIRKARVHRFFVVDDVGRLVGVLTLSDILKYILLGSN
T1 sequence (P06782 1-633 partner): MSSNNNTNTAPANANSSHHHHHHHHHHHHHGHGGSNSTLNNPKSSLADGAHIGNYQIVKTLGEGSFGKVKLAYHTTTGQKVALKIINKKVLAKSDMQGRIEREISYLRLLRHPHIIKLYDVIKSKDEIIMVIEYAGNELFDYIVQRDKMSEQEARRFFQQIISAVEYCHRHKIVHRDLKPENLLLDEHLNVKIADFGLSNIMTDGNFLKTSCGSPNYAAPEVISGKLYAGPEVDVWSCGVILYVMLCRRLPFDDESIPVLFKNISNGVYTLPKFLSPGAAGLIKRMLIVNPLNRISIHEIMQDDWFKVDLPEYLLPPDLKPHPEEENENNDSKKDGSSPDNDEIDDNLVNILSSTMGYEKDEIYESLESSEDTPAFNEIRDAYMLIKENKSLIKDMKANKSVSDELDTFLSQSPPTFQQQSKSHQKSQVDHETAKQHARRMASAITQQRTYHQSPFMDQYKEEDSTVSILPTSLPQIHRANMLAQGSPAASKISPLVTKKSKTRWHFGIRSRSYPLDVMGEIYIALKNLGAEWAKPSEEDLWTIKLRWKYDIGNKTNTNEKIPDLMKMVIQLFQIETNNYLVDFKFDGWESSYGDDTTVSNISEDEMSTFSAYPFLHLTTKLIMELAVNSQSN
T1 sequence (Q04739 1-417 partner): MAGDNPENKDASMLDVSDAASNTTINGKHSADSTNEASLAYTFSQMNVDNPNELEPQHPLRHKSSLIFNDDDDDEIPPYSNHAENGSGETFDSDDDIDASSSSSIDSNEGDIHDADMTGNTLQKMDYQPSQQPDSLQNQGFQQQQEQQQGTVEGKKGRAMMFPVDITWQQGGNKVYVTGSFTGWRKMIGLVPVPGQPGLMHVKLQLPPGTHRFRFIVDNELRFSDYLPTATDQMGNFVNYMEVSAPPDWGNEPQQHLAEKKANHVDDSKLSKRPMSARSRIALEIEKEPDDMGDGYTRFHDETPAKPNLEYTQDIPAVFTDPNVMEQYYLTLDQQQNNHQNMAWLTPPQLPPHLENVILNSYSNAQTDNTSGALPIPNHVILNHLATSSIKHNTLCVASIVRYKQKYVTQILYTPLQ

[2] = target: T1, SNF1 complex (Snf1(1-633)Gal83(1-417)Snf4(1-322)); experiment: fluorescence competition against NADH; type: binding; conditions: phosphorylated SNF1, 20°C, 50 mM Tris pH 8, 100 mM NaCl, 1 mM TCEP
[3] = target: T2, regulatory fragment of SNF1 (Snf4(1-322)Sip2(304-415)Snf1(457-633)) (Saccharomyces cerevisiae, UniProt P12904); experiment: X-ray crystallography, crystal soak; type: binding; conditions: site 4 of Snf4
T2 construct: C-terminal domains of Snf1 and Sip2 with full-length Snf4 (1-322; b14 prints 1-332), tricistronic E. coli expression, His-tag removed with PreScission protease; with Carbon catabolite-derepressing protein kinase; SNF1 protein kinase subunit beta-2
T2 sequence (P12904 1-322): T1 sequence (P12904 1-322)
T2 sequence (P34164 304-415 partner): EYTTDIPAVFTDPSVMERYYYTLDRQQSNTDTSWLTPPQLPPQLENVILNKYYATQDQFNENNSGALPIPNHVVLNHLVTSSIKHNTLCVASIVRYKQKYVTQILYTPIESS
T2 sequence (P06782 457-633 partner): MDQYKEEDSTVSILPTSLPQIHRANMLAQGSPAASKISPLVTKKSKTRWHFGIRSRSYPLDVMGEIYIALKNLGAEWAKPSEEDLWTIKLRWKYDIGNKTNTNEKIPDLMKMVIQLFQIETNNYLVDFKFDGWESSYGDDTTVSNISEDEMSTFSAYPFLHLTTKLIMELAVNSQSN

[4] = target: T1, SNF1 complex (Snf1(1-633)Gal83(1-417)Snf4(1-322)); experiment: protection of Snf1 phospho-Thr210 against dephosphorylation by PP2C (western blot); type: biochemical; conditions: read-out: half-maximal effect
[5] = no Mg, tight site, competitive with NADH, error is SD, read-out: Kd (μM) / Versus C-AXPs

SMILES | Kd [2, 5] | X-ray crystallography, crystal soak [3] | further results
CCN(CC)c1ccc2cc(C(=O)N[C@H]3[C@@H](O)[C@H](n4cnc5c(N)ncnc54)O[C@@H]3COP(=O)(O)OP(=O)(O)O)c(=O)oc2c1 [C-ADP, 3′-(7-diethylaminocoumarin-3-carbonylamino)-3′-deoxyadenosine 5′ diphosphate] |  |  | Kd [1]: 9 µM
Nc1ncnc2c1ncn2[C@@H]1O[C@H](COP(=O)(O)OP(=O)(O)O)[C@@H](O)[C@H]1O [ADP] | 72 µM | strong, well-resolved electron density for AMP, ADP, and NADH | EC50 [4]: ~500 µM
NC(=O)c1ccc[n+]([C@@H]2O[C@H](COP(=O)(O)OP(=O)(O)OC[C@H]3O[C@@H](n4cnc5c(N)ncnc54)[C@H](O)[C@@H]3O)[C@@H](O)[C@H]2O)c1 [NAD^+] |  |  | Kd ([2]; read-out: Kd): > 250 µM
Nc1ncnc2c1ncn2[C@@H]1O[C@H](COP(=O)(O)O)[C@@H](O)[C@H]1O [AMP] |  | strong, well-resolved electron density for AMP, ADP, and NADH | 
NC(=O)C1=CN([C@@H]2O[C@H](COP(=O)(O)OP(=O)(O)OC[C@H]3O[C@@H](n4cnc5c(N)ncnc54)[C@H](O)[C@@H]3O)[C@@H](O)[C@H]2O)C=CC1 [NADH] |  | strong, well-resolved electron density for AMP, ADP, and NADH | 
Nc1ncnc2c1ncn2[C@@H]1O[C@H](COP(=O)(O)OP(=O)(O)OP(=O)(O)O)[C@@H](O)[C@H]1O [ATP] | 120 µM |  | 
